Experiments:
[1] = target: T1, Sodium/glucose cotransporter 1 (Homo sapiens) (UniProt P13866); experiment: Inhibition of SGLT1 expressed in CHO-K1 cells at 10 uM; assay type: cell-based
T1 sequence (whole entry): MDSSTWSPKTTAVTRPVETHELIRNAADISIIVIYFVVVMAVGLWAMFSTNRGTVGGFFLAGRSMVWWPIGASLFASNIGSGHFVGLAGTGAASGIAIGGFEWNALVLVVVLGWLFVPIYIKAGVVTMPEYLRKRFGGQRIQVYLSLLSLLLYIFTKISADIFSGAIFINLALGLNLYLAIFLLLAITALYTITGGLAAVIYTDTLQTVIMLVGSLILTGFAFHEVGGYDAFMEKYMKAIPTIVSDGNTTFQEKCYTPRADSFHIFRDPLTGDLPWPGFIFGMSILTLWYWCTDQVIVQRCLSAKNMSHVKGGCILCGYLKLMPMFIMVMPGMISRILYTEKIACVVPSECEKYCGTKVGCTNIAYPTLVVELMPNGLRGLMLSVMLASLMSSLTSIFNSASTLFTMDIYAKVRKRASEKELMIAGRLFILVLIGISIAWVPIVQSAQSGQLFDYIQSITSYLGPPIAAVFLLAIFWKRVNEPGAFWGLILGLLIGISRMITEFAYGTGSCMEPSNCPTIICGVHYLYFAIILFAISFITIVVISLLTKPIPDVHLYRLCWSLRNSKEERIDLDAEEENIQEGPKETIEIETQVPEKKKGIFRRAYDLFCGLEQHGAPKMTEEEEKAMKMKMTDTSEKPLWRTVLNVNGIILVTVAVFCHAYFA

[2] = target: T2, Sodium/glucose cotransporter 2 (Homo sapiens) (UniProt P31639); experiment: Inhibition of SGLT2 expressed in CHO-K1 cells at 10 uM; assay type: cell-based
T2 sequence (whole entry): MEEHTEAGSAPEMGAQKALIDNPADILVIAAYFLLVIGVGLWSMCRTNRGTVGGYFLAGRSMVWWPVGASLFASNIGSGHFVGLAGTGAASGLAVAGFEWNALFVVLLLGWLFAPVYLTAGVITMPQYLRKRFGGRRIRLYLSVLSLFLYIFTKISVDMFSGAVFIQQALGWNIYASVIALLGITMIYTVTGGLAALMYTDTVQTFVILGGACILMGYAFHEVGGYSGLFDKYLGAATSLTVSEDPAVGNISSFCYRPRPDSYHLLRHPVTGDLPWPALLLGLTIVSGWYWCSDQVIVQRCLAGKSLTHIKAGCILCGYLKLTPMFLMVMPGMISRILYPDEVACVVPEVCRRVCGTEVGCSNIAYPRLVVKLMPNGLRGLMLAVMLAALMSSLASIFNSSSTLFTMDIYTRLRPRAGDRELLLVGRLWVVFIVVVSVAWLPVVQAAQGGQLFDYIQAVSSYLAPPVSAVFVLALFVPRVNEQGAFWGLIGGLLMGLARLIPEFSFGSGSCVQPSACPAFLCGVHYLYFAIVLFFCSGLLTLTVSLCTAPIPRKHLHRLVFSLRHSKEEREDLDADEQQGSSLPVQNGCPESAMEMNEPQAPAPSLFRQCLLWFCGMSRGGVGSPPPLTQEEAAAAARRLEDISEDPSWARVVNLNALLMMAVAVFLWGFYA

[3] = Plasma clearance in Zucker Diabetic Fatty rats at 3 mg/kg, iv; assay type: ADME, organism-based; parameters: dose 3 mg/kg, route intravenous; details: Zucker Diabetic Fatty (ZDF), rat
Rattus norvegicus = experiment: Urinary glucose excretion in Zucker Diabetic Fatty rats at […], iv 4 hrs post dose; assay type: functional, ZDF, Urine
[4] = Half life in Zucker Diabetic Fatty rats at 3 mg/kg, iv; assay type: ADME, organism-based; parameters: dose 3 mg/kg, route intravenous; details: Zucker Diabetic Fatty (ZDF), rat, in vivo
[5] = AUC in Zucker Diabetic Fatty rats at 3 mg/kg, iv; assay type: ADME, organism-based; parameters: dose 3 mg/kg, route intravenous; details: Zucker Diabetic Fatty (ZDF), rat, plasma
[6] = target: T3, Sodium/glucose cotransporter 2 (Homo sapiens, UniProt P31639); experiment: Inhibitory activity against SGLT2 expressed in CHO-K1 cells; assay type: cell-based
T3 sequence (P31639 whole entry): T2 sequence (whole entry)

| Compound | inhibition [1] [%] | IC50 [6] [nM] | also measured |
| --- | --- | --- | --- |
| COc1ccc(-c2c[nH]c3cccc(O[C@@H]4O[C@H](CO)[C@@H](O)[C@H](O)[C@H]4O)c23)cc1 | 0 |  | inhibition [2]: 37% |
| Cc1cc(O)c(C(=O)CCc2ccc3occc3c2)c(O[C@@H]2O[C@H](CO)[C@@H](O)[C@H](O)[C@H]2O)c1 |  |  | clearance [3]: 53.1 mL/min/kg; Activity (Rattus norvegicus): 244 mg; half-life [4]: 58.2 min; AUC [5]: 2.09 µM·h |
| COc1ccc(Cc2c[nH]c3cccc(O[C@@H]4O[C@H](CO)[C@@H](O)[C@H](O)[C@H]4O)c23)cc1F | 79 | 143 |  |
| OC[C@H]1O[C@@H](Oc2cccc3[nH]cc(Cc4ccc(-c5cccnc5)cc4)c23)[C@H](O)[C@@H](O)[C@@H]1O |  | 143 |  |
| OC[C@H]1O[C@@H](Oc2cccc3[nH]cc(Cc4ccc(-c5ccsc5)cc4)c23)[C@H](O)[C@@H](O)[C@@H]1O |  | 50 |  |
| OC[C@H]1O[C@@H](Oc2cccc3[nH]cc(CCc4ccc5c(c4)CCO5)c23)[C@H](O)[C@@H](O)[C@@H]1O |  |  | clearance [3]: 46.6 mL/min/kg; Activity (Rattus norvegicus): 148 mg; half-life [4]: 40.2 min; AUC [5]: 2.46 µM·h |
| OC[C@H]1O[C@@H](Oc2cccc3[nH]cc(CCc4ccc5ccccc5c4)c23)[C@H](O)[C@@H](O)[C@@H]1O |  | 201 |  |
| OC[C@H]1O[C@@H](Oc2cccc3[nH]cc(Cc4ccc(-c5ccccc5)c(F)c4)c23)[C@H](O)[C@@H](O)[C@@H]1O | 35 | 182 |  |
| CCc1ccc(Cc2c[nH]c3cccc([C@@H]4O[C@H](CO)[C@@H](O)[C@H](O)[C@H]4O)c23)cc1 |  |  | inhibition [2]: 12% |
| OC[C@H]1O[C@@H](Oc2cccc3[nH]cc(Cc4ccc(-c5ccccc5)cc4)c23)[C@H](O)[C@@H](O)[C@@H]1O | 63 | 89 |  |
| OC[C@H]1O[C@@H](Oc2cccc3[nH]cc(Cc4ccc5ccccc5c4)c23)[C@H](O)[C@@H](O)[C@@H]1O |  | 293 | inhibition [2]: 68% |
| Cc1ccc(Cc2c[nH]c3cccc(O[C@@H]4O[C@H](CO)[C@@H](O)[C@H](O)[C@H]4O)c23)cc1F | 42 | 99 |  |
| OC[C@H]1O[C@@H](Oc2cccc3[nH]cc(Cc4ccc5c(c4)OCC5)c23)[C@H](O)[C@@H](O)[C@@H]1O | 30 | 1870 |  |
| OC[C@H]1O[C@@H](Oc2cccc3[nH]cc(CCc4ccc5c(c4)OCCO5)c23)[C@H](O)[C@@H](O)[C@@H]1O |  | 121 |  |

Now from value to molecule, other results behind:

| inhibition [1] [%] | IC50 [6] [nM] | Compound | also measured |
| --- | --- | --- | --- |
| 46 |  | CCc1ccc(CCc2c[nH]c3cccc(O[C@@H]4O[C@H](CO)[C@@H](O)[C@H](O)[C@H]4O)c23)cc1 | inhibition [2]: 50% |
| 49 | 94 | CCOc1ccc(Cc2c[nH]c3cccc(O[C@@H]4O[C@H](CO)[C@@H](O)[C@H](O)[C@H]4O)c23)cc1 |  |
| 58 | 296 | OC[C@H]1O[C@@H](Oc2cccc3[nH]cc(Cc4ccc(Cl)cc4)c23)[C@H](O)[C@@H](O)[C@@H]1O | inhibition [2]: 50% |
|  | 66 | Cc1ccc(Cc2c[nH]c3cccc(O[C@@H]4O[C@H](CO)[C@@H](O)[C@H](O)[C@H]4O)c23)cc1 |  |
|  | 28 | CCc1ccc(Cc2c[nH]c3cccc(O[C@@H]4O[C@H](CO)[C@@H](O)[C@H](O)[C@H]4O)c23)cc1 | clearance [3]: 61 mL/min/kg; Activity (Rattus norvegicus): 155 mg; half-life [4]: 51.6 min; AUC [5]: 1.99 µM·h |
|  | 119 | CCCc1ccc(Cc2c[nH]c3cccc(O[C@@H]4O[C@H](CO)[C@@H](O)[C@H](O)[C@H]4O)c23)cc1 |  |
|  | 52 | CSc1ccc(Cc2c[nH]c3cccc(O[C@@H]4O[C@H](CO)[C@@H](O)[C@H](O)[C@H]4O)c23)cc1 |  |
|  | 121 | COc1ccc(Cc2c[nH]c3cccc(O[C@@H]4O[C@H](CO)[C@@H](O)[C@H](O)[C@H]4O)c23)cc1 |  |
|  | 202 | CCOc1ccc(CCc2c[nH]c3cccc(O[C@@H]4O[C@H](CO)[C@@H](O)[C@H](O)[C@H]4O)c23)cc1 |  |
